Experimental data published in patent publication US9169268B2, “Use of 7-alkoxy fangchinoline compounds in preventing, alleviating and/or treating depression” (Peking University, priority 2012, dated 2015).

Assays:
[1] = test system: chronic unpredictable stress (CUS) model in rats; experiment: Sucrose solution preference in CUS model in rats; type: in vivo; conditions: 7 days
Experimental: (§1) The chronic unpredictable stress model is usually used as a depression model. The experimental method is as follows. Stimulation includes forced swimming (10° C., 6 min), tail clamping (1 cm from the tail tip, 1 min), water deprivation (24 h), fasting (24 h), isolated housing (24 h), tail suspension (1 h), immobility (2 h), high-speed horizontal oscillation (120 times/min, 1 h), foot shock for 45 minutes (mean 1 mA, time course 1 s, once/min). These stressors were randomly scheduled over a one-week period and repeated throughout the 23-day experiment. The non-stress control group was housed under normal conditions. Time: between 9:00 a.m. and 2:00 p.m. Since Day 15, the animals in each group were daily intragastrically administered with the subject medicament and double distilled water based on body weight (blank group and CUS model group) respectively, 60 minutes before the stress. […] Behavior and sleep electroencephalogram analyses were carried out on Day 22-23 of the stress. On Day 21, 60 minutes after the final administration, a sucrose solution intake test was carried out and sleep electroencephalogram was recorded simultaneously. On Day 22, EPM and forced swimming tests were carried out.

[2] = test system: GSK-3β phosphorylation level; experiment: GSK-3β phosphorylation level in mouse brain regions (Western blot); type: in vivo; conditions: mice
Experimental: ICR mice were intragastrically administered of subject medicaments and vehicle. One hour later, brains of those treated mice were obtained after decapitation. Prefrontal lobe cortex, hipocampus, corpus striatum and hypothalamus were isolated and collected respectively. Then protein electrophoresis (Western blot) was carried out with each sample.

[3] = test system: chronic unpredictable stress (CUS) model in rats; experiment: Sleep electroencephalogram in CUS depression model in rats; type: in vivo
Experimental: The chronic unpredictable stress model is usually used as a depression model. The experimental method is as follows. Stimulation includes forced swimming (10° C., 6 min), tail clamping (1 cm from the tail tip, 1 min), water deprivation (24 h), fasting (24 h), isolated housing (24 h), tail suspension (1 h), immobility (2 h), high-speed horizontal oscillation (120 times/min, 1 h), foot shock for 45 minutes (mean 1 mA, time course 1 s, once/min). These stressors were randomly scheduled over a one-week period and repeated throughout the 23-day experiment. The non-stress control group was housed under normal conditions. Time: between 9:00 a.m. and 2:00 p.m. Since Day 15, the animals in each group were daily intragastrically administered with the subject medicament and double distilled water based on body weight (blank group and CUS model group) respectively, 60 minutes before the stress. Imipramine (intraperitoneally, IP) was adopted as a positive control. Behavior and sleep electroencephalogram analyses were carried out on Day 22-23 of the stress. On Day 21, 60 minutes after the final administration, a sucrose solution intake test was carried out and sleep electroencephalogram was recorded simultaneously. On Day 22, EPM and forced swimming tests were carried out.
Result 3: Sleep disturbance is one of the most common symptoms of neuropsychiatry. From a view of therapeutics, sleep disturbance is one of the most distressful events in patients suffered from nervous diseases and mental illness, especially in depression, and also one of major adverse events that may exacerbate the conditions of nervous disease and mental illness and impede the recovery in patients. For example, patients who are suffering from depression associated with insomnia may have an apparently higher incidence of a suicidal behavior, as compared with a non-insomnia group. Sleep disturbance in nervous and mental diseases can be simulated by using a CUS model in rats. […] Therefore, YH-200 could be useful for treating and ameliorating sleep disturbance in a patient suffering from depression (see, Table 4).

[4] = test system: chronic unpredictable stress (CUS) model in rats; experiment: Autonomous movement in CUS model in rats; type: in vivo; conditions: 7 days
Experimental: as §1

[5] = target: GSK-3β (Homo sapiens, UniProt P49841); experiment: GSK-3β activity assay (Z′-LYTE); type: biochemical; conditions: n = 3; read-out: Mean EC50 in the inhibition of GSK-3β activity
Experimental: The GSK-3β phosphorylation level was determined by using a Z′-LYTE assay (Life Technologies). The assay was performed in a 384-well plate. The wells of the testing plate were divided into blank control wells (without the enzyme), enzyme control wells (without the testing substance), and testing wells (with the enzyme and the testing substance at various concentrations). The inhibition rate of the testing substance is expressed as: inhibition %=(E−S)/(E−B)×100, wherein E is the average emission ratio of enzyme control wells; B is the average emission ratio of blank control wells; S is the emission ratio of the testing sample wells. The median effective concentration of each compound (EC50 μM) was calculated by using the resultant inhibition rate of each sample at various concentrations.

[6] = test system: forced swimming model in mice; experiment: Forced swimming model in mice; type: in vivo
Experimental: A desperate behavior status of human beings may be simulated by an immobility status in a forced swimming model in mice. The mice were put into a cylindrical glass jar (height 20 cm, diameter 10 cm) with a water depth of 15 cm and water temperature of 25±1° C. The mice were allowed to pre-swim for 15 minutes before the experiment, and then were taken out, wiped dry at a warm place, and sent back into cages. In 24 hours, the mice received an intragastric administration; and 60 minutes after the administration, the mice were put into the above-mentioned environment. The accumulative immobility time of the mice in the jar during the 5-minute period of time after six minutes of swimming was measured. A decrease in immobility time was taken as evaluation index.

[7] = Serum AST and ALT in mice after 14 days of intragastric administration; type: in vivo; conditions: mouse, in vivo, 60 mg/kg/day
Experimental: Blood was collected from epicanthal, stood at room temperature for about 2 hours, and centrifuged for 12 minutes at 3000 r/min after coagulation. The serum was removed and centrifuged again. Alanine transaminase (ALT) and aspartate transaminase (AST) levels were determined

[8] = test system: chronic unpredictable stress (CUS) model in rats; experiment: Elevated plus-maze (EPM) anxiety test in CUS model in rats; type: in vivo
Experimental: as §1

[9] = Day 0 (baseline, before dosing)

Sequence of GSK-3β (P49841 whole entry): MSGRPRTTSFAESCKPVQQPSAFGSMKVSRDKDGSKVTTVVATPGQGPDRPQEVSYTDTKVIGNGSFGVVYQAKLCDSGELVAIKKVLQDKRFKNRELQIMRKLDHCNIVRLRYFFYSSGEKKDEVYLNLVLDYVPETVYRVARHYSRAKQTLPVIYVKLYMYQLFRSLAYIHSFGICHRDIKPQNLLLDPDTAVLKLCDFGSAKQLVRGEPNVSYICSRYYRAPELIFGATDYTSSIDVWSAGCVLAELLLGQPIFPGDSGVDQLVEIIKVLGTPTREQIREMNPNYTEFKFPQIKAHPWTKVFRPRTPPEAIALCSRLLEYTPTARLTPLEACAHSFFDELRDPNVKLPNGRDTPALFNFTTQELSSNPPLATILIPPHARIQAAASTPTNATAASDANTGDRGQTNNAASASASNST

In the case of `CCOc1c(OC)cc2c3c1Oc1cc4c(cc1OC)CCN(C)C4Cc1ccc(cc1)Oc1cc(ccc1OC)CC3N(C)CC2` (stereo not shown) [Compound 3, 7-ethoxy fangchinoline], the Sucrose solution preference ([1]; 7.5 mg/kg intragastric daily) is reported as 82.3 ± 3.3^##,$$ %, the Sucrose solution preference ([1]; 15 mg/kg intragastric daily) is reported as 93.6 ± 4.6^##,$$ % and the Sucrose solution preference ([1]; 30 mg/kg intragastric daily) is reported as 98.1 ± 3.7^##,$$ %. For the same molecule, the p-GSK-3β level ([2]; 30 mg/kg intragastric, 1 h, hypothalamus, versus blank control) was “evidently increased”, the “influence on phosphorylated GSK-3β (p-GSK-3β) and total-GSK-3β” value ([2]; 30 mg/kg intragastric, 1 h, prefrontal lobe cortex, hipocampus and corpus striatum) was “no evident influence” and the “total GSK-3β level” value ([2]; 60 mg/kg intragastric, 1 h, four brain sections) was “no influence”. For the same molecule, the p-GSK-3β level ([2]; 60 mg/kg intragastric, 1 h, prefrontal lobe cortex, hipocampus, corpus striatum and hypothalamus) was “significantly increased”, the “enhancement of GSK-3β phosphorylation level with pMPPI given intraperitoneally 15 minutes before” value ([2]; FIG. 3, prefrontal lobe cortex, hipocampus, corpus striatum and hypothalamus, n=6) was “could evidently inhibit” and the “enhancement of GSK-3β phosphorylation level with 5-HT2A receptor agonist DOI” value ([2]; FIG. 5, prefrontal lobe cortex, hipocampus, corpus striatum and hypothalamus, n=6) was “inhibited”. For the same molecule, the “effect on the sleep disturbance” value ([3]; 30 mg/kg p.o.) was “evident amelioration effect”, the “Deep sleep (SWS) Time” value [3, 9] was 39.31 ± 10.22 min and the “NREM sleep Time” value [3, 9] was 174.44 ± 8.35 min. The “Rapid eye movement (REM) sleep Time” value [3, 9] was 37.95 ± 6.28 min, the “Total sleep Time” value [3, 9] was 212.40 ± 12.65 min and the “Deep sleep (SWS) Time” value ([3]; Day 21, 30 mg/kg p.o.) was 48.18 ± 13.77 min. For the same molecule, the “NREM sleep Time” value ([3]; Day 21, 30 mg/kg p.o.) was 165.27 ± 7.97 min, the “Rapid eye movement (REM) sleep Time” value ([3]; Day 21, 30 mg/kg p.o.) was 34.06 ± 1.75 min and the “Total sleep Time” value ([3]; Day 21, 30 mg/kg p.o.) was 199.33 ± 9.11 min. For the same molecule, the “Autonomous movement Distance” value ([4]; 7.5 mg/kg intragastric daily) was 13612.65 ± 792.22^##,$$ mm, the “Autonomous movement Speed” value ([4]; 7.5 mg/kg intragastric daily) was 45.38 ± 2.64^##,$$ mm/second and the “Autonomous movement Distance” value ([4]; 15 mg/kg intragastric daily) was 14409.83 ± 664.54^##,$$ mm. For the same molecule, the “Autonomous movement Speed” value ([4]; 15 mg/kg intragastric daily) was 48.03 ± 4.02^##,$$ mm/second, the “Autonomous movement Distance” value ([4]; 30 mg/kg intragastric daily) was 14636.14 ± 812.31^##,$$ mm and the “Autonomous movement Speed” value ([4]; 30 mg/kg intragastric daily) was 48.78 ± 5.36^##,$$ mm/second. The EC50 [5] was 860 nM, the melting point was 109.5 to 111 °C and the “anti-depression effect with 5-HT1A receptor antagonist pMPPI” value ([6]; FIG. 2, n=12-15) was “could be inhibited”. The “reduction of immobility time and extension of immobility latency period with 5-HT2A receptor agonist DOI” value ([6]; FIG. 4, n=12-15) was “could be inhibited”, the ALT [7] was 82.1 ± 16.4 U/L and the AST [7] was 102.3 ± 14.5 U/L. For the same molecule, the AST/ALT [7] was 1.25 ± 0.18, the “Percentage of entries into open arms relative to total entries into arms” value ([8]; 7.5 mg/kg intragastric daily) was 57.2 ± 1.8^##,$$ % and the “Percentage of residence time in open arms” value (shortened to “Percentage of residence time”) ([8]; 7.5 mg/kg intragastric daily) was 69.1 ± 2.4^##,$$ %. The “Percentage of entries into open arms relative to total entries into arms” value ([8]; 15 mg/kg intragastric daily) was 59.7 ± 2.2^##,$$ %, the “Percentage of residence time” value ([8]; 15 mg/kg intragastric daily) was 72.3 ± 3.6^##,$$ % and the “Percentage of entries into open arms relative to total entries into arms” value ([8]; 30 mg/kg intragastric daily) was 60.2 ± 2.0^##,$$ %. The “Percentage of residence time” value ([8]; 30 mg/kg intragastric daily) was 71.8 ± 3.2^##,$$ %.
